Source: the kinase profiling compilation of Christmann-Franck et al. (2016)

Tests used:
Assay in all cases: radiometric filter-binding kinase assay
RIPK2 (human) = RIPK2 (human) (UniProt O43353)
IGF1R (human) = IGF1R (human) (UniProt P08069)
MAP3K1 (human) = MAP3K1 (human) (UniProt Q13233)
LCK (mouse) = conditions: compound 1.0 µM; accession and sequence are those of the human protein
FGFR1 (human) = FGFR1 (human) (UniProt P11362)
MAPK14 (human) = MAPK14 (human) (UniProt Q16539)
FLT1 (human) = FLT1 (human) (UniProt P17948); conditions: compound 10.0 µM
BRSK1 (human) = BRSK1 (human) (UniProt Q8TDC3)
CLK2 (human) = CLK2 (human) (UniProt P49760)
MAPKAPK5 (human) = MAPKAPK5 (human) (UniProt Q8IW41)
IRAK4 (human) = IRAK4 (human) (UniProt Q9NWZ3)
MAP3K7 TAB1 (human) = MAP3K7 TAB1 (human) (UniProt Q15750+O43318)
CAMKK2 (human) = CAMKK2 (human) (UniProt Q96RR4)
TAOK1 (human) = TAOK1 (human) (UniProt Q7L7X3)
MARK1 (human) = MARK1 (human) (UniProt Q9P0L2)
GSK3B (human) = GSK3B (human) (UniProt P49841)
MAPK15 (human) = MAPK15 (human) (UniProt Q8TD08)
PRKCZ (human) = PRKCZ (human) (UniProt Q05513)
HIPK1 (human) = HIPK1 (human) (UniProt Q86Z02)
[1] = test system: AKT2 (human), P31751 [S474D]
ROCK2 (rat) = conditions: accession and sequence are those of the human protein
NTRK1 (human) = NTRK1 (human) (UniProt P04629)
SRC (human) = SRC (human) (UniProt P12931)
[2] = target: STK11 CAB39 STRADA (human) (UniProt Q9Y376+Q7RTN6+Q15831)
MELK (human) = MELK (human) (UniProt Q14680)
EPHA2 (human) = EPHA2 (human) (UniProt P29317)
HIPK3 (human) = HIPK3 (human) (UniProt Q9H422)
RPS6KA3 KD1 KD2 (human) = RPS6KA3 KD1 KD2 (human) (UniProt P51812)
CSNK1D (human) = CSNK1D (human) (UniProt P48730)
CSK (human) = CSK (human) (UniProt P41240); conditions: compound 10.0 µM
JAK2 JH1 JH2 (human) = JAK2 JH1 JH2 (human) (UniProt O60674)
MINK1 (human) = MINK1 (human) (UniProt Q8N4C8)
DYRK3 (human) = DYRK3 (human) (UniProt O43781)
INSR (human) = INSR (human) (UniProt P06213); conditions: compound 0.1 µM
MAPK11 (human) = MAPK11 (human) (UniProt Q15759)

Chain of STK11 CAB39 STRADA (human) (Q15831 whole entry, looked up): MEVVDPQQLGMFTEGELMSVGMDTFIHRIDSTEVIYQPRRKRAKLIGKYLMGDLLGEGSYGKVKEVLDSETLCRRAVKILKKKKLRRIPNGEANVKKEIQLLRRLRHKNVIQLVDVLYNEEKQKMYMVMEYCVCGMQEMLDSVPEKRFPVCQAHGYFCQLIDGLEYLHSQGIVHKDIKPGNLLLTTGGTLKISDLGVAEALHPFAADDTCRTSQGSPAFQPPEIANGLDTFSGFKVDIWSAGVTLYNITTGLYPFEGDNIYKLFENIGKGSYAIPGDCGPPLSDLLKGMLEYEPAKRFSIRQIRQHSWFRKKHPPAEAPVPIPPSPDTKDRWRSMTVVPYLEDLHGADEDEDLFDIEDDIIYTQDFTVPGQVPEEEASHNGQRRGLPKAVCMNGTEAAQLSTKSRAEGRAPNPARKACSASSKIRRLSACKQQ
Chain of STK11 CAB39 STRADA (human) (Q7RTN6 whole entry, looked up): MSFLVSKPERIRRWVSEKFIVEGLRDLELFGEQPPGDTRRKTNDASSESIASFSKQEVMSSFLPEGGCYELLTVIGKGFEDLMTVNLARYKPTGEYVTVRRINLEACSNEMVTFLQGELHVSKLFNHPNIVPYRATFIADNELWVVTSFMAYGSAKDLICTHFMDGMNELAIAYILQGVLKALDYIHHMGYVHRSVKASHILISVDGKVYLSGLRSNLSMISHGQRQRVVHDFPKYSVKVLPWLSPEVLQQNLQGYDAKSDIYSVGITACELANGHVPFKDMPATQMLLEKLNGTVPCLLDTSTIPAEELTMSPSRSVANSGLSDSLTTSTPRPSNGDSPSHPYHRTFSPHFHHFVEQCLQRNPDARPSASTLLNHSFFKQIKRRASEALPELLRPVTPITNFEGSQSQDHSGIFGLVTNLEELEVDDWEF
Chain of STK11 CAB39 STRADA (human) (Q9Y376 whole entry, looked up): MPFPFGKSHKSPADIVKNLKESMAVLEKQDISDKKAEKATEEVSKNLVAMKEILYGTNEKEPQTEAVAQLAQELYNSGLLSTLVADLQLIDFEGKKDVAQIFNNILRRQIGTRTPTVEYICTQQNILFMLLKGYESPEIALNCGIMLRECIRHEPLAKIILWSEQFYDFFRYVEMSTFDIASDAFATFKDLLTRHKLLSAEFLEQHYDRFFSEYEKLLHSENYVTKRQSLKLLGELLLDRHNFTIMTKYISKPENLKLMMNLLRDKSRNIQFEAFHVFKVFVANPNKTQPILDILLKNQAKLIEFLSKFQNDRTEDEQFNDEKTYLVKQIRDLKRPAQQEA
Chain of JAK2 JH1 JH2 (human) (O60674 whole entry, looked up): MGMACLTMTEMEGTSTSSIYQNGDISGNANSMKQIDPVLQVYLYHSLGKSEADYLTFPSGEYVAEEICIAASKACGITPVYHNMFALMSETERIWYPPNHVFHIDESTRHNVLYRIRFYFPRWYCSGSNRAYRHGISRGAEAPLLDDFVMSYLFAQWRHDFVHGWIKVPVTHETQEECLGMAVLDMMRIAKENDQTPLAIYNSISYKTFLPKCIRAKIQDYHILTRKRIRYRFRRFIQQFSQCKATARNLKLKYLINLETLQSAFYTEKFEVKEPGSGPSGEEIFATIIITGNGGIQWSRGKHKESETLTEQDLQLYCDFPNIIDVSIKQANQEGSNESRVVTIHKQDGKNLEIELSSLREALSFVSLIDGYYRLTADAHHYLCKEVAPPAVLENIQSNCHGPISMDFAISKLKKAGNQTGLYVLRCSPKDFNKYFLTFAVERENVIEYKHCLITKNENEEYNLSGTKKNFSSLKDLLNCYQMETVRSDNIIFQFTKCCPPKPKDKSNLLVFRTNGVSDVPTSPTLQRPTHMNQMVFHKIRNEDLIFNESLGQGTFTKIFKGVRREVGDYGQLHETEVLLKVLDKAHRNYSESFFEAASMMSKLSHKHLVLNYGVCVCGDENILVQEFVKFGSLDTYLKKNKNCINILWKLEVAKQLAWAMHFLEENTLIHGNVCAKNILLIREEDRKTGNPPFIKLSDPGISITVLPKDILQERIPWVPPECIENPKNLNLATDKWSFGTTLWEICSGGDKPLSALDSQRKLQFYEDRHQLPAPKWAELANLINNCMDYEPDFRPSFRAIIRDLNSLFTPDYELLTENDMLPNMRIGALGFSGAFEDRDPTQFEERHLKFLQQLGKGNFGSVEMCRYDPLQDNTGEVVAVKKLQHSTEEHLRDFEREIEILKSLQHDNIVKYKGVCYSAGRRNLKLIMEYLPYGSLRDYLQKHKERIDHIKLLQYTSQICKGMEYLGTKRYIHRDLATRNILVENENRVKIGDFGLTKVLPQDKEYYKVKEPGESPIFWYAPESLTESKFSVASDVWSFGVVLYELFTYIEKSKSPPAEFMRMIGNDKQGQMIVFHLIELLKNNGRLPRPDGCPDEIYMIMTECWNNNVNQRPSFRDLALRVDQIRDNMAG
Chain of IGF1R (human) (P08069 whole entry, looked up): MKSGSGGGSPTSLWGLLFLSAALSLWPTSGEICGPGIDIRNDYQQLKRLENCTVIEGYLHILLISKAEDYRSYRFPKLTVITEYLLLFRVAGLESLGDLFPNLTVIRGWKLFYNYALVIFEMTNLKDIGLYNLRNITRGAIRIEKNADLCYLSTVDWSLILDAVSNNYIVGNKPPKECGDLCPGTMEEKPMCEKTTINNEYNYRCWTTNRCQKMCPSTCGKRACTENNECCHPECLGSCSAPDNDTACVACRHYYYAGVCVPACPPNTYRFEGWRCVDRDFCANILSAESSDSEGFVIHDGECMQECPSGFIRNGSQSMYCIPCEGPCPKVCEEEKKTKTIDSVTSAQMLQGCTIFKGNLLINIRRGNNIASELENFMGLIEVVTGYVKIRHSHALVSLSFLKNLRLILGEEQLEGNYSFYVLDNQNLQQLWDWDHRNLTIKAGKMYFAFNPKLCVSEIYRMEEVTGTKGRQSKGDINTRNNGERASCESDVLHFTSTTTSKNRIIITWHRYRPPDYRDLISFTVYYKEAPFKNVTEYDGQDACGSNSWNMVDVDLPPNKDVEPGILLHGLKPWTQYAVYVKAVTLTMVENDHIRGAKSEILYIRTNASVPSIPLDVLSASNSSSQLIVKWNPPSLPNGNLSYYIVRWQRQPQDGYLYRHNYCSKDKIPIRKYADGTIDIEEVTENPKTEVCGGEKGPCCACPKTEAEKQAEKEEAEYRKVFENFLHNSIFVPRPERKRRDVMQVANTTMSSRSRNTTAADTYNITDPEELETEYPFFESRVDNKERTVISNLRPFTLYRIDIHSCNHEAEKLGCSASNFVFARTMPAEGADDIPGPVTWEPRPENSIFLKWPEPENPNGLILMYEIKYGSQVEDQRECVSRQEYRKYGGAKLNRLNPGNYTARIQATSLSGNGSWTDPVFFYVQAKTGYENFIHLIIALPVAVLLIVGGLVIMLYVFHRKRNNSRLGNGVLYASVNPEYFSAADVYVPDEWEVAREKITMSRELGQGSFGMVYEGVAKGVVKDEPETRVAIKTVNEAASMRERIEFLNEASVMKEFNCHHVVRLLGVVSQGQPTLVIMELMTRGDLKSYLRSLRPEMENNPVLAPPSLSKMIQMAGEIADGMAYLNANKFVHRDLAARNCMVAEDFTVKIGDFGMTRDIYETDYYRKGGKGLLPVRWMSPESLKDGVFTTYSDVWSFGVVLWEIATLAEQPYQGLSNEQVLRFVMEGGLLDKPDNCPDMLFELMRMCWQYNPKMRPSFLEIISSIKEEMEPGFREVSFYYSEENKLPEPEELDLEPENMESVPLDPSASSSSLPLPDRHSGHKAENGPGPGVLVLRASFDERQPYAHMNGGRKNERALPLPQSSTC
Chain of TAOK1 (human) (Q7L7X3 whole entry, looked up): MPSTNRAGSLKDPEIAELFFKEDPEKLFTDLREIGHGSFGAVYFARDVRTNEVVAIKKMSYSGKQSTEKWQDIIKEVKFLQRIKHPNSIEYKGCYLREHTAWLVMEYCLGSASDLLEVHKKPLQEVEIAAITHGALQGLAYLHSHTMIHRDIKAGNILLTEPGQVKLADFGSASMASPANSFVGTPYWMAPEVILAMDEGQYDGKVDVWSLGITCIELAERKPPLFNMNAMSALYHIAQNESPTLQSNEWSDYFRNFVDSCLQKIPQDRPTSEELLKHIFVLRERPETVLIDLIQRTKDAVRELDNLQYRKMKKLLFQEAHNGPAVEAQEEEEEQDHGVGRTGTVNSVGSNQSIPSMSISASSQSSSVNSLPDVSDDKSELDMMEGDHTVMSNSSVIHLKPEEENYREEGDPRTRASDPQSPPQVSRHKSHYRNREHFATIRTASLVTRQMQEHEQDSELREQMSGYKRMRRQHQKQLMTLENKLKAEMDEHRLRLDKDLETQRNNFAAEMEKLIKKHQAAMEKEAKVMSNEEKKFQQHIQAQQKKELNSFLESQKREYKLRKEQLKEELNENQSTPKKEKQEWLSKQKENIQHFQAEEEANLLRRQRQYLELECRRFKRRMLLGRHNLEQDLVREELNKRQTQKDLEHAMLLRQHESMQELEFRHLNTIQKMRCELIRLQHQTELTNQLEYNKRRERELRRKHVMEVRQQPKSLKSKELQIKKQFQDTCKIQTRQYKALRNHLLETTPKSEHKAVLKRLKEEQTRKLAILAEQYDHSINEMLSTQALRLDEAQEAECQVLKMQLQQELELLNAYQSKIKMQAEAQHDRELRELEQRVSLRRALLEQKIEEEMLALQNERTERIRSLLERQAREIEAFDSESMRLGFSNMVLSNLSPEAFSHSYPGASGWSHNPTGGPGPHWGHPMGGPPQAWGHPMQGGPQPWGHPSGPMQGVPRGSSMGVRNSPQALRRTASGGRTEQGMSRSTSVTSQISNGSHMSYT
Chain of MAPK14 (human) (Q16539 whole entry, looked up): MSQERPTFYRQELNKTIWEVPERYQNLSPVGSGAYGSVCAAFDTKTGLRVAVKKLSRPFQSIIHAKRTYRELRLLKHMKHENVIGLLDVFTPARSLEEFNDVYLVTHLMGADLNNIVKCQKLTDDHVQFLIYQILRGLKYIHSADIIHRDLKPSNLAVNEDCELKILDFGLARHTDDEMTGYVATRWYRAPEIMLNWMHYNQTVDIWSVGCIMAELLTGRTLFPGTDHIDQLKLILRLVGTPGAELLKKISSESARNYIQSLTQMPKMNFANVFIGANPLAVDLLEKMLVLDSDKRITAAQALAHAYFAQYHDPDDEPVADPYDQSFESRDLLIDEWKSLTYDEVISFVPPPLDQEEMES

Cc1ccc(-c2ccc3c(ccc4sc5c(c43)NC[C@@H](C)NC5=O)n2)cn1
residual activity (RIPK2 (human); compound 0.1 µM): 93% | residual activity (RIPK2 (human); compound 10.0 µM): 39% | residual activity (IGF1R (human); compound 0.1 µM): 101% | residual activity (IGF1R (human); compound 1.0 µM): 108% | residual activity (IGF1R (human); compound 10.0 µM): 114% | residual activity (MAP3K1 (human); compound 0.1 µM): 102% | residual activity (MAP3K1 (human); compound 1.0 µM): 109% | residual activity (MAP3K1 (human); compound 10.0 µM): 109% | residual activity (LCK (mouse)): 95% | residual activity (FGFR1 (human); compound 0.1 µM): 95% | residual activity (FGFR1 (human); compound 1.0 µM): 91% | residual activity (FGFR1 (human); compound 10.0 µM): 68% | residual activity (MAPK14 (human); compound 0.1 µM): 94% | residual activity (MAPK14 (human); compound 1.0 µM): 94% | residual activity (MAPK14 (human); compound 10.0 µM): 83% | residual activity (FLT1 (human)): 65% | residual activity (BRSK1 (human); compound 0.1 µM): 86% | residual activity (BRSK1 (human); compound 1.0 µM): 55% | residual activity (BRSK1 (human); compound 10.0 µM): 29% | residual activity (CLK2 (human); compound 0.1 µM): 86% | residual activity (CLK2 (human); compound 1.0 µM): 43% | residual activity (CLK2 (human); compound 10.0 µM): 9% | residual activity (MAPKAPK5 (human); compound 1.0 µM): 67% | residual activity (MAPKAPK5 (human); compound 10.0 µM): 24% | residual activity (IRAK4 (human); compound 0.1 µM): 94% | residual activity (IRAK4 (human); compound 1.0 µM): 62% | residual activity (IRAK4 (human); compound 10.0 µM): 24% | residual activity (MAP3K7 TAB1 (human); compound 0.1 µM): 113% | residual activity (MAP3K7 TAB1 (human); compound 1.0 µM): 109% | residual activity (MAP3K7 TAB1 (human); compound 10.0 µM): 70% | residual activity (CAMKK2 (human); compound 0.1 µM): 107% | residual activity (CAMKK2 (human); compound 10.0 µM): 28% | residual activity (TAOK1 (human); compound 0.1 µM): 109% | residual activity (TAOK1 (human); compound 1.0 µM): 98% | residual activity (TAOK1 (human); compound 10.0 µM): 70% | residual activity (MARK1 (human); compound 0.1 µM): 116% | residual activity (MARK1 (human); compound 1.0 µM): 107% | residual activity (MARK1 (human); compound 10.0 µM): 93% | residual activity (GSK3B (human); compound 0.1 µM): 126% | residual activity (GSK3B (human); compound 1.0 µM): 99% | residual activity (GSK3B (human); compound 10.0 µM): 88% | residual activity (MAPK15 (human); compound 0.1 µM): 96% | residual activity (MAPK15 (human); compound 1.0 µM): 79% | residual activity (MAPK15 (human); compound 10.0 µM): 38% | residual activity (PRKCZ (human); compound 0.1 µM): 115% | residual activity (PRKCZ (human); compound 1.0 µM): 112% | residual activity (PRKCZ (human); compound 10.0 µM): 106% | residual activity (HIPK1 (human); compound 0.1 µM): 111% | residual activity (HIPK1 (human); compound 1.0 µM): 104% | residual activity (HIPK1 (human); compound 10.0 µM): 130% | residual activity ([1]; compound 1.0 µM): 90% | residual activity ([1]; compound 10.0 µM): 69% | residual activity (ROCK2 (rat); compound 0.1 µM): 112% | residual activity (ROCK2 (rat); compound 1.0 µM): 96% | residual activity (ROCK2 (rat); compound 10.0 µM): 95% | residual activity (NTRK1 (human); compound 1.0 µM): 100% | residual activity (NTRK1 (human); compound 10.0 µM): 83% | residual activity (SRC (human); compound 0.1 µM): 110% | residual activity (SRC (human); compound 1.0 µM): 116% | residual activity (SRC (human); compound 10.0 µM): 100% | residual activity ([2]; compound 0.1 µM): 118% | residual activity ([2]; compound 1.0 µM): 103% | residual activity ([2]; compound 10.0 µM): 97% | residual activity (MELK (human); compound 0.1 µM): 123% | residual activity (MELK (human); compound 10.0 µM): 77% | residual activity (EPHA2 (human); compound 0.1 µM): 90% | residual activity (EPHA2 (human); compound 1.0 µM): 95% | residual activity (EPHA2 (human); compound 10.0 µM): 76% | residual activity (HIPK3 (human); compound 0.1 µM): 112% | residual activity (HIPK3 (human); compound 1.0 µM): 108% | residual activity (HIPK3 (human); compound 10.0 µM): 96% | residual activity (RPS6KA3 KD1 KD2 (human); compound 0.1 µM): 104% | residual activity (RPS6KA3 KD1 KD2 (human); compound 1.0 µM): 79% | residual activity (RPS6KA3 KD1 KD2 (human); compound 10.0 µM): 50% | residual activity (CSNK1D (human); compound 0.1 µM): 96% | residual activity (CSNK1D (human); compound 1.0 µM): 96% | residual activity (CSNK1D (human); compound 10.0 µM): 92% | residual activity (CSK (human)): 106% | residual activity (JAK2 JH1 JH2 (human); compound 0.1 µM): 101% | residual activity (JAK2 JH1 JH2 (human); compound 1.0 µM): 102% | residual activity (JAK2 JH1 JH2 (human); compound 10.0 µM): 79% | residual activity (MINK1 (human); compound 1.0 µM): 97% | residual activity (MINK1 (human); compound 10.0 µM): 40% | residual activity (DYRK3 (human); compound 0.1 µM): 111% | residual activity (DYRK3 (human); compound 10.0 µM): 40% | residual activity (INSR (human)): 123% | residual activity (MAPK11 (human); compound 0.1 µM): 118% | residual activity (MAPK11 (human); compound 1.0 µM): 126% | residual activity (MAPK11 (human); compound 10.0 µM): 117%
